Assay results as given in PMC8484168 (Cancer Chemotherapy and Pharmacology, 2021).

Legend:
CYP3A = tested on: CYP3A; parameters: method as in PMID 30427584; conditions: patients with an advanced solid tumor; cited from earlier work
[1] = parameters: method as in PMID 29799676; conditions: all dosages 40–500 mg QD or 240–840 mg BID; cited from earlier work
[2] = Rucaparib steady-state trough plasma concentration (Cmin); type: in vivo, human; conditions: rucaparib 600 mg BID from day 5
Text: This was a 2-part, phase 1, open-label, 2-arm DDI study in patients with advanced solid tumors. In Part 1 of the study, patients were screened for eligibility from day − 28 to − 2 and visited the study site from day − 1 to 23 (Fig. 1). […] To check steady-state plasma concentrations for rucaparib, a blood sample was collected prior to the dosing of rucaparib on days 5, 9, 11, 15, and 19–23.
Other PK parameters, calculated for the probe drugs, included half-life (t1/2), tmax, apparent total clearance of drug after oral administration (CL/F), and apparent volume of distribution during terminal phase (VZ/F). The PK parameter calculated for rucaparib at steady state was trough plasma concentration (Cmin). PK parameters were calculated by noncompartmental analysis using Phoenix WinNonlin, version 8.1 (Certara, Princeton, NJ).

[3] = Safety: TEAEs, Arm B (rucaparib + oral contraceptives)
Description: (§1) Safety was assessed separately during the 3 treatment periods: before rucaparib dosing (day 1 to 5), rucaparib dosing alone (day 6 to 18), and rucaparib with and after probe drug (day 19 to 23). Safety and tolerability assessments were made based on adverse events (AEs), clinical laboratory results, vital signs, 12-lead electrocardiogram (ECG) measurements, body weight, physical examination, concomitant medication/procedures, and ECOG performance status. AEs were classified according to the Medical Dictionary for Regulatory Activities (MedDRA) classification system version 22.1 [17] and graded according to the Common Terminology Criteria for Adverse Events (CTCAE) version 4.03 [18].

CYP3As = tested on: CYP3As; parameters: method as in PMID 32129697; conditions: human liver microsomes, reversible inhibition; cited from earlier work
CYP3A4 = tested on: CYP3A4; parameters: method as in PMID 32129697; conditions: human hepatocytes; cited from earlier work
[4] = tested on: breast cancer resistance protein (BCRP); parameters: method as in PMID 32129697; conditions: read-out: 50% inhibitory concentration (IC50) for BCRP; transfected cells; cited from earlier work
[5] = Safety: TEAEs, Arm A (rucaparib + rosuvastatin); type: in vivo, human
Description: as §1

Question: Which results are given for `CNCc1ccc(-c2[nH]c3cc(F)cc4c3c2CCNC4=O)cc1` [rucaparib]?
Answer: inhibition of CYP3A at steady state (CYP3A): weakly inhibited; steady state of plasma rucaparib PK achieved by day [1]: ≤ 8 days; days of continuous rucaparib dosing to steady state [2]: 4 days; Pharyngitis bacterial ([3]; Arm B, maximum severity 1): 1 (5.6) n (%); patients who experienced at least 1 TEAE ([3]; female, human, in vivo): 50.0%; patients with TEAEs considered related to rucaparib ([3]; female, human, in vivo): 7 patients; Abdominal discomfort ([3]; human, in vivo): 1 (5.6) n (%); Abdominal pain ([3]; human, in vivo): 1 (5.6) n (%); Accident ([3]; human, in vivo): 1 (5.6) n (%); Acute kidney injury ([3]; human, in vivo): 1 (5.6) n (%); Apathy ([3]; human, in vivo): 1 (5.6) n (%); Arthropod bite ([3]; human, in vivo): 1 (5.6) n (%); Ascites ([3]; human, in vivo): 1 (5.6) n (%); Aspartate aminotransferase increased ([3]; human, in vivo): 1 (5.6) n (%); Cerebrovascular accident ([3]; human, in vivo): 0 n (%); Diarrhea ([3]; human, in vivo): 0 n (%); Dysgeusia ([3]; human, in vivo): 2 (11.1) n (%); Erythema ([3]; human, in vivo): 0 n (%); General disorders and administration site conditions ([3]; human, in vivo): 1 (5.6) n (%); Headache ([3]; human, in vivo): 1 (5.6) n (%); Infections and infestations ([3]; human, in vivo): 1 (5.6) n (%); Injury, poisoning, and procedural complications ([3]; human, in vivo): 1 (5.6) n (%); Musculoskeletal and connective tissue disorders ([3]; human, in vivo): 1 (5.6) n (%); Musculoskeletal pain ([3]; human, in vivo): 1 (5.6) n (%); Nausea ([3]; human, in vivo): 1 (5.6) n (%); Onycholysis ([3]; human, in vivo): 1 (5.6) n (%); Peripheral swelling ([3]; human, in vivo): 1 (5.6) n (%); Psychiatric disorders ([3]; human, in vivo): 1 (5.6) n (%); Renal and urinary disorders ([3]; human, in vivo): 1 (5.6) n (%); Skin and subcutaneous tissue disorders ([3]; human, in vivo): 1 (5.6) n (%); Skin hemorrhage ([3]; human, in vivo): 1 (5.6) n (%); Somnolence ([3]; human, in vivo): 1 (5.6) n (%); Taste disorder ([3]; human, in vivo): 1 (5.6) n (%); Thrombocytopenia ([3]; human, in vivo): 0 n (%); IC50 (CYP3As): 17.2 to 22.9 µM; CYP3A4 mRNA expression (CYP3A4): down-regulated; CYP3A activities (CYP3A4): reduced; IC50 [4]: 55 µM; Abdominal distension ([5]; maximum severity 1): 1 (5.9) n (%); Abdominal pain ([5]; maximum severity 1): 1 (5.9) n (%); Blood creatinine increased ([5]; maximum severity 1): 1 (5.9) n (%); Diarrhea ([5]; maximum severity 1): 2 (11.8) n (%); Dyspepsia ([5]; maximum severity 1): 1 (5.9) n (%); Electrocardiogram QT prolonged ([5]; maximum severity 1): 1 (5.9) n (%); Gastrointestinal disorders ([5]; maximum severity 1): 3 (17.6) n (%); General disorders and administration site conditions ([5]; maximum severity 1): 1 (5.9) n (%); Infections and infestations ([5]; maximum severity 1): 1 (5.9) n (%); Investigations ([5]; maximum severity 1): 2 (11.8) n (%); Nasopharyngitis ([5]; maximum severity 1): 1 (5.9) n (%); Peripheral swelling ([5]; maximum severity 1): 1 (5.9) n (%); Reproductive system and breast disorders ([5]; maximum severity 1): 0 n (%); Total patients with events ([5]; maximum severity 1): 5 (29.4) n (%); Vaginal hemorrhage ([5]; maximum severity 1): 0 n (%); Vomiting ([5]; maximum severity 1): 0 n (%); Abdominal pain ([5]; maximum severity 2): 1 (5.9) n (%); Abdominal pain upper ([5]; maximum severity 2): 1 (5.9) n (%); Body temperature increased ([5]; maximum severity 2): 0 n (%); Cardiac disorders ([5]; maximum severity 2): 1 (5.9) n (%); Diarrhea ([5]; maximum severity 2): 1 (5.9) n (%); Dyspepsia ([5]; maximum severity 2): 0 n (%); Electrocardiogram QT prolonged ([5]; maximum severity 2): 0 n (%); Gastrointestinal disorders ([5]; maximum severity 2): 3 (17.6) n (%); General disorders and administration site conditions ([5]; maximum severity 2): 2 (11.8) n (%); Infections and infestations ([5]; maximum severity 2): 1 (5.9) n (%); Investigations ([5]; maximum severity 2): 0 n (%); Noncardiac chest pain ([5]; maximum severity 2): 1 (5.9) n (%); Peripheral swelling ([5]; maximum severity 2): 1 (5.9) n (%); Sinus tachycardia ([5]; maximum severity 2): 1 (5.9) n (%); Total patients with events ([5]; maximum severity 2): 5 (29.4) n (%); Urinary tract infection ([5]; maximum severity 2): 1 (5.9) n (%); Vomiting ([5]; maximum severity 2): 1 (5.9) n (%); Deep vein thrombosis ([5]; maximum severity 3): 1 (5.9) n (%); Total patients with events ([5]; maximum severity 3): 1 (5.9) n (%); Vascular disorders ([5]; maximum severity 3): 1 (5.9) n (%); Pulmonary embolism ([5]; maximum severity 4): 1 (5.9) n (%); Respiratory, thoracic, and mediastinal disorders ([5]; maximum severity 4): 1 (5.9) n (%); Total patients with events ([5]; maximum severity 4): 1 (5.9) n (%); TEAEs considered related to rucaparib by the investigator ([5]; rucaparib alone day 5 to 19, of 10 patients with TEAE): 3
